In PubChem BioAssay (NCI) one finds TGI data, which are given here for 12 compounds.

Among the test systems are MDA-MB-435; MOLT-4 leukemia; NCI-H226 lung; SF-295 CNS; HCC-2998 colon; HCT-116 colon; LOX IMVI melanoma; CAKI-1 renal; SK-MEL-5 melanoma; NCI/ADR-RES ovarian; SNB-75 CNS.
Common to all, as to assay: growth of human tumour cells (NCI), 48 h

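How tested: cells in 96-well plates exposed to compound for 48 hours at five concentrations. TGI: total growth inhibition.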

In the case of `Cc1[nH]c2ccccc2c1C1=CC(=O)N(c2ccccc2)C1=O`, the TGI in the assay with MDA-MB-435 is above 100 µM; in the assay with MOLT-4 leukemia, above 100 µM; in the assay on NCI-H226 lung, 88.4 µM; in the assay on SF-295 CNS, above 100 µM; with HCC-2998 colon, 7.38 µM; in the assay on HCT-116 colon, 22.7 µM. Besides, the TGI with LOX IMVI melanoma is 18.3 µM; in the assay on CAKI-1 renal, above 100 µM; in the assay with SK-MEL-5 melanoma it was 21.9 µM; in the assay on NCI/ADR-RES ovarian, above 100 µM.
For the compound `C#CC(O)Cc1ccc(OC)c2occc12` (stereo not given), the TGI in the assay with MDA-MB-435, in the assay on NCI-H226 lung, in the assay on SF-295 CNS, in the assay on HCC-2998 colon, with HCT-116 colon and with LOX IMVI melanoma was above 100 µM each time. Also, the TGI with CAKI-1 renal, in the assay on SNB-75 CNS, in the assay on SK-MEL-5 melanoma and with NCI/ADR-RES ovarian was above 100 µM in each case.
With `O=[N+]([O-])c1ccc2[nH]c(O)c(N=NC(=S)Nc3ccccc3)c2c1`, the TGI in the assay with MDA-MB-435 is 26.9 µM; with MOLT-4 leukemia it was above 100 µM; in the assay on NCI-H226 lung, 65.4 µM; in the assay on SF-295 CNS, 16.6 µM; in the assay on HCC-2998 colon it was 12.4 µM; in the assay on HCT-116 colon, 18.6 µM. For the same compound, the TGI came out at 24.6 µM with LOX IMVI melanoma; 15.2 µM in the assay on CAKI-1 renal; 21.5 µM in the assay on SNB-75 CNS; 13.5 µM in the assay on SK-MEL-5 melanoma; 8.62 µM in the assay on NCI/ADR-RES ovarian.
For the compound `CC(=O)NC1C(OCc2ccccc2)OC(CO)C(O)C1OCC(=O)N1CCCC1C(=O)NC(CCC(=O)NCCCCCNc1c2ccccc2nc2cccc([N+](=O)[O-])c12)C(N)=O` (stereo not given), the TGI is 0.033 µM in the assay on MDA-MB-435; 4.55 µM in the assay on MOLT-4 leukemia; 0.514 µM in the assay with NCI-H226 lung; 0.724 µM in the assay with SF-295 CNS; 0.027 µM in the assay with HCC-2998 colon; 0.137 µM in the assay on HCT-116 colon. The TGI with LOX IMVI melanoma came to 0.733 µM; in the assay with CAKI-1 renal it was 0.134 µM; with SNB-75 CNS it was 0.479 µM; in the assay on SK-MEL-5 melanoma, 0.0386 µM; in the assay on NCI/ADR-RES ovarian it was 1.09 µM.
As to `Nc1nc(NCCOCP(=O)(O)O)c(N)c(=O)[nH]1`, the TGI with MDA-MB-435, with MOLT-4 leukemia, in the assay with NCI-H226 lung, with SF-295 CNS, in the assay with HCC-2998 colon and in the assay on HCT-116 colon was above 100 µM in each case. Also, the TGI in the assay on LOX IMVI melanoma, with CAKI-1 renal, in the assay on SNB-75 CNS, in the assay with SK-MEL-5 melanoma and in the assay with NCI/ADR-RES ovarian was above 100 µM each time.
In the case of `S=C(Nc1cccc(C2(N3CCCCC3)CCCCC2)c1)Nc1cccc(C2(N3CCCCC3)CCCCC2)c1`, the TGI was 30.6 µM in the assay with MDA-MB-435; 42.8 µM in the assay on MOLT-4 leukemia; 78.5 µM in the assay on NCI-H226 lung; above 100 µM in the assay on SF-295 CNS; 6.07 µM with HCC-2998 colon; 48.4 µM with HCT-116 colon. Moreover, the TGI in the assay on LOX IMVI melanoma was 26.7 µM; in the assay with CAKI-1 renal it was above 100 µM; in the assay on SNB-75 CNS, 28.6 µM; in the assay with SK-MEL-5 melanoma, 33.6 µM; in the assay on NCI/ADR-RES ovarian it was above 100 µM.
`CC1=C(C)C(=O)C(C2=C(C3=CC(=O)C(C)=C(C)C3=O)C(=O)c3ccccc3C2=O)=CC1=O`: the TGI with MDA-MB-435 is 3.05 µM; in the assay with MOLT-4 leukemia it was 5.3 µM; with NCI-H226 lung it was 21 µM; with SF-295 CNS it was 27.9 µM; in the assay with HCC-2998 colon, 16.3 µM; with HCT-116 colon, 5.31 µM. For the same compound, the TGI amounted to 5.94 µM with LOX IMVI melanoma; 5.66 µM in the assay with CAKI-1 renal; 19.6 µM in the assay on SNB-75 CNS; 12.6 µM in the assay with SK-MEL-5 melanoma; 36.7 µM in the assay with NCI/ADR-RES ovarian.
As to `CSc1nc(-c2ccc(Cl)cc2)c(C#N)c(=O)[nH]1`, the TGI in the assay with MDA-MB-435, in the assay with MOLT-4 leukemia, in the assay on NCI-H226 lung, in the assay with SF-295 CNS, in the assay on HCC-2998 colon and in the assay with HCT-116 colon was above 100 µM each time. Moreover, the TGI in the assay on CAKI-1 renal, with SNB-75 CNS, in the assay with SK-MEL-5 melanoma and in the assay on NCI/ADR-RES ovarian was above 100 µM each time.
As for `CCOC(=O)NC(=S)NC(C)c1ccccc1` (stereo not given), the TGI in the assay with MDA-MB-435, in the assay on MOLT-4 leukemia, with NCI-H226 lung, with SF-295 CNS, with HCC-2998 colon and in the assay with HCT-116 colon was above 100 µM each time. For the same compound, the TGI with CAKI-1 renal, with SNB-75 CNS, in the assay on SK-MEL-5 melanoma and in the assay with NCI/ADR-RES ovarian was above 100 µM throughout.
In the case of `c1cc(C[S+]2CCCC2)oc1C[S+]1CCCC1`, the TGI in the assay with MDA-MB-435, with MOLT-4 leukemia, in the assay on SF-295 CNS, with HCC-2998 colon, with HCT-116 colon and in the assay on LOX IMVI melanoma was above 100 µM each time. Moreover, the TGI in the assay on CAKI-1 renal, with SNB-75 CNS, in the assay on SK-MEL-5 melanoma and in the assay on NCI/ADR-RES ovarian was above 100 µM throughout.
Consider `COc1ccccc1Cn1[nH]c(=O)c2cc([N+](=O)[O-])ccc21`, for which the TGI in the assay with MDA-MB-435, in the assay on MOLT-4 leukemia, in the assay with NCI-H226 lung, in the assay on HCC-2998 colon, with HCT-116 colon and in the assay with LOX IMVI melanoma was above 100 µM each time. Moreover, the TGI with CAKI-1 renal, in the assay on SNB-75 CNS, with SK-MEL-5 melanoma and in the assay with NCI/ADR-RES ovarian was above 100 µM throughout.
For `Nc1cc(N)c(N=Nc2cccc3c(S(=O)(=O)O)cccc23)cc1N=Nc1cc([N+](=O)[O-])ccc1O`, the TGI with MDA-MB-435 is above 100 µM; in the assay on MOLT-4 leukemia, above 100 µM; in the assay with SF-295 CNS, above 100 µM; in the assay with HCC-2998 colon, 79.9 µM; with HCT-116 colon, above 100 µM; in the assay with LOX IMVI melanoma it was 37.1 µM. Moreover, the TGI with CAKI-1 renal was above 100 µM; with SNB-75 CNS, above 100 µM; in the assay on SK-MEL-5 melanoma, 47.2 µM; in the assay on NCI/ADR-RES ovarian, 93.2 µM.
